{"source": "patent US8952024B2", "about": "“Herbicidal pyrimidone derivatives” (E I du Pont de Nemours and Company, priority 2009, dated 2015)", "type_in_all_cases": "in vivo", "key": {"[1]": {"tested_on": "wheat (Triticum aestivum)", "assay": "Test B pre-/postemergence plant response", "conditions": "Triticum aestivum, pre-emergence; Preemergence, 125 g ai/ha; scale 0 to 100, 0 no effect, 100 complete control; read-out: Plant response rating, Wheat", "how_it_was_run": "(§1)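 Seeds sown in loam–sand blend were treated preemergence, and plants at 2–18 cm (1- to 4-leaf stage) in peat-based medium were treated postemergence; compounds were formulated in non-phytotoxic solvent with surfactant. After 13–15 days in greenhouse, response was visually rated against controls, 0 (no effect) to 100 (complete control).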"}, "[2]": {"tested_on": "pigweed (Amaranthus retroflexus)", "assay": "Test B pre-/postemergence plant response", "conditions": "for pest or weed control at 31 g/ha: 31 g ai/ha; for pest or weed control at 125 g/ha: 125 g ai/ha", "how_it_was_run": "as §1"}, "[3]": {"tested_on": "cocklebur (Xanthium strumarium)", "assay": "Test B pre-/postemergence plant response", "conditions": "for pest or weed control at 31 g/ha: 31 g ai/ha; for pest or weed control at 125 g/ha: 125 g ai/ha", "how_it_was_run": "as §1"}, "[4]": {"tested_on": "downy bromegrass (Bromus tectorum)", "assay": "Test B pre-/postemergence plant response", "conditions": "for pest or weed control at 31 g/ha: 31 g ai/ha; for pest or weed control at 125 g/ha: 125 g ai/ha", "how_it_was_run": "as §1"}, "[5]": {"tested_on": "morningglory (Ipomoea spp.)", "assay": "Test A pre-/postemergence plant response", "conditions": "Ipomoea, 240 h, read-out: Plant response rating, Morningglory; for pest or weed control at 125 g/ha: 125 g ai/ha; for pest or weed control at 500 g/ha: 500 g ai/ha, approx. ten days", "how_it_was_run": "(§2)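 Approximately ten days after concurrent pre- and postemergence spraying in a greenhouse, plants were compared with untreated controls and rated visually for injury, 0 = no effect to 100 = complete control. Preemergence spray was directed onto loam/sand soil; postemergence targeted 1–2 leaf seedlings.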"}, "[6]": {"tested_on": "wheat (Triticum aestivum)", "assay": "Test A pre-/postemergence plant response", "conditions": "Triticum aestivum, 240 h, read-out: Plant response rating, Wheat; for plant injury at 125 g/ha: 125 g ai/ha; for plant injury at 500 g/ha: 500 g ai/ha, approx. ten days", "how_it_was_run": "as §2"}, "[7]": {"tested_on": "large crabgrass (Digitaria sanguinalis)", "assay": "Test A pre-/postemergence plant response", "conditions": "Digitaria sanguinalis, 240 h, read-out: Plant response rating, Crabgrass, Large; for pest or weed control at 125 g/ha: 125 g ai/ha; for pest or weed control at 500 g/ha: 500 g ai/ha, approx. ten days", "how_it_was_run": "as §2"}, "[8]": {"tested_on": "velvetleaf (Abutilon theophrasti)", "assay": "Test A pre-/postemergence plant response", "conditions": "Abutilon theophrasti, 240 h, read-out: Plant response rating, Velvetleaf; for pest or weed control at 125 g/ha: 125 g ai/ha; for pest or weed control at 500 g/ha: 500 g ai/ha, approx. ten days", "how_it_was_run": "as §2"}, "[9]": {"conditions": "62 g ai/ha, postemergence, 0 is no effect, 100 is complete control, 13 to 15 days"}, "[10]": {"conditions": "Preemergence, 250 g ai/ha, 0 to 100 scale"}, "[11]": {"conditions": "post-emergence, Postemergence, 0 to 100 scale where 0 is no effect and 100 is complete control"}, "[12]": {"conditions": "post-emergence, Postemergence, 0 to 100 scale, 0 = no effect, 100 = complete control"}, "[13]": {"conditions": "pre-emergence, Preemergence, 0 to 100 scale, 0 = no effect, 100 = complete control"}, "[14]": {"conditions": "pre-emergence, Preemergence, visual injury, 0 to 100 scale (0 no effect, 100 complete control)"}}, "note": "Read-outs that look alike come from different tables or passages of the source."}
{"molecule": "O=C1CCCC(O)=C1C(=O)c1cnc(-c2cccnc2)n(-c2ccccc2)c1=O", "note": "[Compound 113, 5-[(2-hydroxy-6-oxo-1-cyclohexen-1-yl)carbonyl]-3-phenyl-2-(3-pyridinyl)-4(3H)-pyrimidone]", "values": [{"measurement": "plant injury at 125 g/ha", "setting": "[1]", "result": 10, "unit": "%"}, {"measurement": "Pigweed plant response rating (0 to 100 scale)", "setting": "[2]; [9]", "result": 100}, {"measurement": "pest or weed control at 31 g/ha", "setting": "[2]; Amaranthus retroflexus, post-emergence, postemergence, scale 0 to 100, 0 is no effect, 100 is complete control, read-out: Plant response rating, Pigweed", "result": 95, "unit": "%"}, {"measurement": "pest or weed control at 125 g/ha", "setting": "[2]; Amaranthus retroflexus, post-emergence, Postemergence, scale 0 to 100 (0 no effect, 100 complete control), read-out: Plant response rating, Pigweed", "result": 100, "unit": "%"}, {"measurement": "pest or weed control at 250 g/ha", "setting": "[2]; Amaranthus retroflexus, post-emergence, Postemergence, 250 g ai/ha, scale 0 to 100 (0 no effect, 100 complete control), read-out: Plant response rating, Pigweed", "result": 100, "unit": "%"}, {"measurement": "pest or weed control at 31 g/ha", "setting": "[2]; Amaranthus retroflexus, pre-emergence, Preemergence, scale 0 to 100 (0 no effect, 100 complete control), read-out: Plant response rating, Pigweed", "result": 98, "unit": "%"}, {"measurement": "pest or weed control at 62 g/ha", "setting": "[2]; Amaranthus retroflexus, pre-emergence, Preemergence, 62 g ai/ha, scale 0 to 100 (0 no effect, 100 complete control), read-out: Plant response rating, Pigweed", "result": 98, "unit": "%"}, {"measurement": "pest or weed control at 125 g/ha", "setting": "[2]; Amaranthus retroflexus, pre-emergence, Preemergence, scale 0 to 100, 0 no effect, 100 complete control, read-out: Plant response rating, Pigweed", "result": 100, "unit": "%"}, {"measurement": "Pigweed plant response rating", "setting": "[2]; [10]", "result": 100}, {"measurement": "Cocklebur plant response rating (0 to 100 scale)", "setting": "[3]; [9]", "result": 95}, {"measurement": "Cocklebur plant response rating", "setting": "[3]; [10]", "result": 100}, {"measurement": "pest or weed control at 31 g/ha", "setting": "[3]; Xanthium strumarium, post-emergence, postemergence, scale 0 to 100, 0 is no effect, 100 is complete control, read-out: Plant response rating, Cocklebur", "result": 95, "unit": "%"}, {"measurement": "pest or weed control at 125 g/ha", "setting": "[3]; Xanthium strumarium, post-emergence, Postemergence, scale 0 to 100 (0 no effect, 100 complete control), read-out: Plant response rating, Cocklebur", "result": 98, "unit": "%"}, {"measurement": "pest or weed control at 250 g/ha", "setting": "[3]; Xanthium strumarium, post-emergence, Postemergence, 250 g ai/ha, scale 0 to 100 (0 no effect, 100 complete control), read-out: Plant response rating, Cocklebur", "result": 98, "unit": "%"}, {"measurement": "pest or weed control at 31 g/ha", "setting": "[3]; Xanthium strumarium, pre-emergence, Preemergence, scale 0 to 100 (0 no effect, 100 complete control), read-out: Plant response rating, Cocklebur", "result": 45, "unit": "%"}, {"measurement": "pest or weed control at 62 g/ha", "setting": "[3]; Xanthium strumarium, pre-emergence, Preemergence, 62 g ai/ha, scale 0 to 100, 0 no effect, 100 complete control, read-out: Plant response rating, Cocklebur", "result": 75, "unit": "%"}, {"measurement": "pest or weed control at 125 g/ha", "setting": "[3]; Xanthium strumarium, pre-emergence, Preemergence, scale 0 to 100, 0 no effect, 100 complete control, read-out: Plant response rating, Cocklebur", "result": 90, "unit": "%"}, {"measurement": "Bromegrass, Downy plant response rating (0 to 100 scale)", "setting": "[4]; [9]", "result": 60}, {"measurement": "pest or weed control at 31 g/ha", "setting": "[4]; Bromus tectorum, post-emergence, postemergence, scale 0 to 100, 0 is no effect, 100 is complete control, read-out: Plant response rating, Bromegrass, Downy", "result": 5, "unit": "%"}, {"measurement": "pest or weed control at 125 g/ha", "setting": "[4]; Bromus tectorum, post-emergence, Postemergence, scale 0 to 100 (0 no effect, 100 complete control), read-out: Plant response rating, Bromegrass, Downy", "result": 80, "unit": "%"}, {"measurement": "pest or weed control at 250 g/ha", "setting": "[4]; Bromus tectorum, post-emergence, Postemergence, 250 g ai/ha, scale 0 to 100 (0 no effect, 100 complete control), read-out: Plant response rating, Bromegrass, Downy", "result": 90, "unit": "%"}, {"measurement": "pest or weed control at 31 g/ha", "setting": "[4]; Bromus tectorum, pre-emergence, Preemergence, scale 0 to 100 (0 no effect, 100 complete control), read-out: Plant response rating, Bromegrass, Downy", "result": 0, "unit": "%"}, {"measurement": "pest or weed control at 62 g/ha", "setting": "[4]; Bromus tectorum, pre-emergence, Preemergence, 62 g ai/ha, scale 0 to 100, 0 no effect, 100 complete control, read-out: Plant response rating, Bromegrass, Downy", "result": 10, "unit": "%"}, {"measurement": "pest or weed control at 125 g/ha", "setting": "[4]; Bromus tectorum, pre-emergence, Preemergence, scale 0 to 100, 0 no effect, 100 complete control, read-out: Plant response rating, Bromegrass, Downy", "result": 10, "unit": "%"}, {"measurement": "Bromegrass, Downy plant response rating", "setting": "[4]; [10]", "result": 10}, {"measurement": "pest or weed control at 125 g/ha", "setting": "[5]; [11]", "result": 100, "unit": "%"}, {"measurement": "pest or weed control at 500 g/ha", "setting": "[5]; [12]", "result": 100, "unit": "%"}, {"measurement": "pest or weed control at 125 g/ha", "setting": "[5]; [13]", "result": 30, "unit": "%"}, {"measurement": "pest or weed control at 500 g/ha", "setting": "[5]; [14]", "result": 80, "unit": "%"}, {"measurement": "plant injury at 125 g/ha", "setting": "[6]; [11]", "result": 0, "unit": "%"}, {"measurement": "plant injury at 500 g/ha", "setting": "[6]; [12]", "result": 60, "unit": "%"}, {"measurement": "plant injury at 125 g/ha", "setting": "[6]; [13]", "result": 0, "unit": "%"}, {"measurement": "plant injury at 500 g/ha", "setting": "[6]; [14]", "result": 0, "unit": "%"}, {"measurement": "pest or weed control at 125 g/ha", "setting": "[7]; [11]", "result": 100, "unit": "%"}, {"measurement": "pest or weed control at 500 g/ha", "setting": "[7]; [12]", "result": 100, "unit": "%"}, {"measurement": "pest or weed control at 125 g/ha", "setting": "[7]; [13]", "result": 70, "unit": "%"}, {"measurement": "pest or weed control at 500 g/ha", "setting": "[7]; [14]", "result": 100, "unit": "%"}, {"measurement": "pest or weed control at 125 g/ha", "setting": "[8]; [11]", "result": 100, "unit": "%"}, {"measurement": "pest or weed control at 500 g/ha", "setting": "[8]; [12]", "result": 100, "unit": "%"}, {"measurement": "pest or weed control at 125 g/ha", "setting": "[8]; [13]", "result": 100, "unit": "%"}, {"measurement": "pest or weed control at 500 g/ha", "setting": "[8]; [14]", "result": 100, "unit": "%"}]}
